In patent US11931463B2, “All-in-one fixed-dose combination for treating Helicobacter pylori infection” (RedHill Biopharma Ltd., priority 2013, dated 2024):
Read-outs that look alike come from different tables or passages of the source.

Experiments:
[1] = cited from earlier work
[2] = Phase I open-label 2-arm crossover relative bioavailability study, plasma pharmacokinetics; details: for concentration at 0.5 h / concentration at 1 h / concentration at 2 h / concentration at 3 h: both, human, in vivo
Description: A single center, randomized, single and multiple doses, open-label, 2-period, 2-sequence, crossover study was carried out on male and female volunteers.
A Phase I Open-Label, 2-Arm Crossover Study to Evaluate the Relative Bioavailability of the pharmaceutical composition, also herein as test formulation (Rifabutin/Amoxicillin/Omeprazole 12.5 mg/250 mg/10 mg) capsules given 3 times a day, every 8 hours, compared to the concomitant administration of the three drug substance components in fasted healthy volunteers (Table 13). Test formulation (Treatment-1) was analyzed in comparison to the pharmacokinetics of the reference drugs rifabutin, amoxicillin and omeprazole given concomitantly (Treatment-2) under fasting conditions.
Treatment-1: 4× Test formulation Amoxicillin, Rifabutin, Omeprazole 250 mg/12.5 mg/10 mg capsules (Test) given three times daily, in the morning, afternoon and evening, 8 hours apart, for a total daily oral dose of 3000 mg/150 mg/120 mg.
Treatment-2: 1× Mycobutin® 150 mg capsule (Reference-1)+2× Amoxicillin 500 mg capsule (Reference-2)+1× Prilosec® 40 mg delayed-release capsule (Reference-3) taken concomitantly each given three times daily, in the morning, afternoon and evening, 8 hours apart, for a total daily oral dose of 150 mg rifabutin/3000 mg amoxicillin/120 mg omeprazole.
Reference-1 Product, Dose and Mode of Administration: • Name: Mycobutin® • Dosage form/Route of administration: Capsule/Oral • Regimen: Single 150 mg dose (1×150 mg) given once in the morning, for a total daily oral dose of 150 mg.
Reference-2 Product, Dose and Mode of Administration: • Name: Amoxicillin • Dosage form/Route of administration: Capsule/Oral • Regimen: Single 1000 mg dose (2×500 mg) given three times daily, in the morning, afternoon and evening, 8 hours apart, for a total of a total daily oral dose of 3000 mg.
Reference-3 Product, Dose and Mode of Administration: • Name: Prilosec® • Dosage form/Route of administration: Delayed Release Capsule/Oral • Regimen: Single 40 mg dose (1×40 mg), given three times daily, in the morning, afternoon and evening, 8 hours apart, for a total of a total daily oral dose of 120 mg
Treatments: • Treatment-1: 4 capsules of the Test formulation was given three times daily, in the morning, afternoon and evening, 8 hours apart, for a total daily oral dose of 150 mg rifabutin/3000 mg amoxicillin/120 mg omeprazole) • Treatment-2: Reference-1 drug (Rifabutin) was given once in the morning together with 2 capsules of Reference-2 drug (amoxicillin) and 1 capsule of Reference-3 drug (Omeprazole). Each reference drug was given three times daily, in the morning, afternoon and evening, 8 hours apart, for a total daily oral dose of 150 mg rifabutin/3000 mg amoxicillin/120 mg omeprazole).
Single and multiple oral doses were administered under fasting conditions in each study period. The drug administrations were separated by a wash-out of 14 calendar days.
For each Treatment in each study period, 78 blood samples were collected on 26 occasions.
Main absorption and disposition parameters using a non-compartmental approach with a log-linear terminal phase assumption. Trapezoidal rule to estimate the area under the curve. The pharmacokinetic parameters for this study were to be Cmax, Tmax, Cmin, C24, Clast, Tlast, AUC0-24, AUC∞, Kel and T1/2el.
Statistical analysis of Tmax based on a non-parametric approach. Statistical analysis of all other pharmacokinetic parameters based on a parametric ANOVA model. […] ANOVA Model: • fixed factors: sequence, period, treatment • random factor: subject (nested within sequence) Safety: • Descriptive statistics.

[3] = Assay and related substances under accelerated conditions 40° C./75% RH; format: physicochemical
[4] = In vitro dissolution assay, 900 ml 0.01 N HCl, 100 rpm, baskets apparatus; format: physicochemical
Description: (§1) In some embodiments, an average of no less than 80% of amoxicillin is released in 60 min at 100 rpm in a baskets apparatus (900 ml 0.01 N HCl, at 100 rpm in a baskets apparatus). In some embodiments, an average of 90%, 96%, and 97% of the amoxicillin is released in an in vitro dissolution assay at 20, 30, and 45 minutes, respectively.
as §1, with “75%” for “80%”, “rifabutin” for “amoxicillin”, “45” for “60”, “95, 97,” for “90%, 96%,”, “98%” for “97%”

H. pylori = details: cited from earlier work
plasma proteins = details: cited from earlier work
clinical = details: human, in vivo, 50 mg
[5] = cited from earlier work; remark: listed apart in the source
[6] = cited from earlier work; remark: listed apart in the source
[7] = single oral 150 mg dose of rifabutin capsules, fasting
[8] = single oral 1000 mg dose of amoxicillin capsules, fasting

## 31-hydroxyrifabutin
[1]; in vivo
  plasma metabolite: parent area under the curve ratio: 0.07

## 25-O-desacetylrifabutin
[1]; in vivo
  plasma metabolite: parent area under the curve ratio: 0.10

## CO[C@H]1/C=C/O[C@@]2(C)Oc3c(C)c(O)c4c(c3C2=O)C2=NC3(CCN(CC(C)C)CC3)NC2=C(NC(=O)/C(C)=C\C=C\[C@H](C)[C@H](O)[C@@H](C)[C@@H](O)[C@@H](C)[C@H](OC(C)=O)[C@@H]1C)C4=O [Rifabutin]
[2]; 150 mg rifabutin over 24 hours in both treatments
  extent of absorption of rifabutin, single 150 mg capsule relative to test formulation tid: 1.5 times
[2]
  concentration at 0.5 h: 5.52 ng/mL
  concentration at 1 h: 28.1 ng/mL
  concentration at 2 h: 66.1 ng/mL
  concentration at 3 h: 72.5 ng/mL
[3]; T = 0
  Related Substances, Total: 1.13 % area
[3]; T = 1 month, 40° C./75% RH
  Related Substances, Total: 2.11 % area
[4]; 20 minutes
  average released in in vitro dissolution assay: 95%
[4]; 30 minutes
  average released in in vitro dissolution assay: 97%
[4]; 45 minutes
  average released in in vitro dissolution assay: 98%
H. pylori; in general
  mean rate of H. pylori resistance: 1.3%
H. pylori; patients naïve to H. pylori eradication treatment
  mean rate of H. pylori resistance: 0.6%
Plasma proteins; concentration range of 50 to 1000 ng/ml
  bound to plasma proteins: About 85%
clinical
  Cmax: ~63 ng/mL
[1]; healthy adult volunteers, single oral dose
  mean systemic clearance: 0.69 (±0.32) L/hour/kg
[1]; in vivo, po, 150 mg
  Cmax: 188 ng/mL
[1]; in vivo, po
  dose absorbed: at least 53%
  time to peak plasma concentrations: 2 to 4 h
[1]; in vivo
  contribution of renal and of biliary excretion of unchanged drug to systemic clearance: approximately 5%
  decrease of AUC following multiple dosing: 38%
  steady-state trough levels (Cp, Cminss, 24-hour post dose): 50 to 65 ng/mL
[1]; plasma elimination, biphasic
  initial half-life: approximately 4 hours
[1]; [7]
  T1/2el: 40 h
  Tmax: 3 h

## COc1ccc2[nH]c([S+]([O-])Cc3ncc(C)c(OC)c3C)nc2c1 (centres unmarked) [Omeprazole]
[2]
  concentration at 0.5 h: 85.8 ng/mL
  concentration at 1 h: 613 ng/mL
  concentration at 2 h: 828 ng/mL
  concentration at 3 h: 466 ng/mL
Plasma proteins
  plasma protein binding: about 95%
[5]; in vivo, po, 40 mg
  T1/2el: 1 h
[5]; in vivo, po
  drug absorbed from the gastrointestinal tract: approximately 35%
[5]; in vivo
  dose excreted in the feces: 20%
  dose recovered as urinary metabolites: 80%
  time to completion of absorption: ≤ 4 h
[5]; plasma concentration-time curve
  average half-life of the terminal phase: approximately 40 minutes
[5]; single oral 40 mg dose of omeprazole delayed-release capsules, fasting
  Tmax: 1.75 h

## CC1(C)S[C@@H]2[C@H](NC(=O)[C@H](N)c3ccc(O)cc3)C(=O)N2[C@H]1C(=O)O [Amoxicillin]
[2]
  concentration at 0.5 h: 2380 ng/mL
  concentration at 1 h: 8920 ng/mL
  concentration at 2 h: 14700 ng/mL
  concentration at 3 h: 11300 ng/mL
[3]; T = 0
  Related Substances, Total: 2.21 % area
[3]; T = 1 month, 40° C./75% RH
  Related Substances, Total: 3.01 % area
[4]; 20 minutes
  average released in in vitro dissolution assay: 90%
[4]; 30 minutes
  average released in in vitro dissolution assay: 96%
[4]; 45 minutes
  average released in in vitro dissolution assay: 97%
[6]; in vivo, po, 1000 mg
  T1/2el: 1.15 h
[6]; in vivo, po
  time to peak serum concentrations: 1 to 2 h
[6]; in vivo
  peak serum concentrations relative to equivalent dose of oral ampicillin: 2-2.5 times
  stability in gastric acid: stable in the presence of gastric acid
[6]; [8]
  Cmax: 14000 ng/mL
  Tmax: 1.65 h
